From PubChem BioAssay (NCI)
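Cultured in 96-well plates, cells were exposed to test compound for 48 hours across five concentrations. The concentration for 50% growth inhibition is given as GI50. TGI marks complete inhibition of growth.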

Tests used:
Experiment in all cases: inhibition of tumour cell growth, NCI panel, 48 h
SK-OV-3 ovarian = system: SK-OV-3 ovarian
MALME-3M melanoma = system: MALME-3M melanoma
IGROV1 ovarian = system: IGROV1 ovarian
HOP-62 NSCLC = system: HOP-62 NSCLC
HS 578T breast = system: HS 578T breast
OVCAR-8 ovarian = system: OVCAR-8 ovarian
HCC-2998 colon = system: HCC-2998 colon
SF-539 CNS = system: SF-539 CNS
MCF7 breast = system: MCF7 breast
NCI/ADR-RES ovarian = system: NCI/ADR-RES ovarian

| SMILES | GI50 (SK-OV-3 ovarian) [µM] | TGI (SK-OV-3 ovarian) [µM] | GI50 (MALME-3M melanoma) [nM] | TGI (MALME-3M melanoma) [µM] | GI50 (IGROV1 ovarian) [µM] | TGI (IGROV1 ovarian) [µM] | GI50 (HOP-62 NSCLC) [nM] | TGI (HOP-62 NSCLC) [µM] | GI50 (HS 578T breast) [µM] | TGI (HS 578T breast) [µM] | GI50 (OVCAR-8 ovarian) [µM] | TGI (OVCAR-8 ovarian) [µM] | GI50 (HCC-2998 colon) [µM] | TGI (HCC-2998 colon) [µM] | GI50 (SF-539 CNS) [µM] | TGI (SF-539 CNS) [µM] | GI50 (MCF7 breast) [µM] | TGI (MCF7 breast) [µM] | GI50 (NCI/ADR-RES ovarian) [nM] | TGI (NCI/ADR-RES ovarian) [µM] |
| --- | --- | --- | --- | --- | --- | --- | --- | --- | --- | --- | --- | --- | --- | --- | --- | --- | --- | --- | --- | --- |
| NC1=CC(=O)C(=O)c2cccnc21 | 18.8 | 41.2 | 2220 | 4.63 | 7.91 | 23.1 | 2580 | 7.15 | 5.16 | 55.1 | 3.21 | 16.6 | 14.7 | 28.4 | 7.59 | 20.3 | 3.74 | 16.8 | 3600 | 24 |
| CC(C)(C)c1ccc(C(=O)N/N=C/c2ccc(O)cc2O)cc1 | 0.589 | 14.7 | 478 | 5.19 | 0.411 | 12.4 | 418 | 11.1 | 2.42 | 27.3 | 0.54 | > 100 | 0.695 | 7.62 | 0.452 | 2.98 | 0.322 | 12.7 | 351 | 19.3 |
| Clc1ccccc1-c1nc2ccccc2[nH]1 | > 100 | > 100 | > 100000 | > 100 | 91.7 | > 100 | > 100000 | > 100 | > 100 | > 100 | > 100 | > 100 | > 100 | > 100 | > 100 | > 100 | > 100 | > 100 | > 100000 | > 100 |
| CC12C=CC(C)(O1)C1C2c2ccccc2S1(=O)=O (stereo not given) | > 100 | > 100 | 50300 | > 100 | 25.1 | 95.3 | > 100000 | > 100 | 46.2 | > 100 | > 100 | > 100 | > 100 | > 100 | 85.4 | > 100 | 50.4 | > 100 | > 100000 | > 100 |
| COC(=O)[C@]12CC[C@@H](C)[C@H](C)[C@@H]1C1=CC[C@@H]3[C@@]4(C)C(c5ncon5)=C[C@@](C)(CO)C4=CC[C@@]3(C)[C@]1(C)CC2 | 4.49 | 15.5 | 1670 | 3.55 | 2.47 | 7.19 | 2420 | 5.08 | 2.52 | 8.03 | 3.41 | 10.2 | 2.14 | 3.79 | 1.97 | 3.89 | 1.42 | 2.9 | 2280 | 5.72 |
| Cn1cc(-c2csc(-c3cn(CCN4CCOCC4)c4ccc(F)cc34)n2)c2cccnc21 | 5.41 | 51.6 | 2880 | 12.3 | 2.91 | 14.1 | 2420 | 7.59 | 3.75 | > 100 | 2.75 | 7.88 | 3.42 | 16.4 | 3.16 | 16.2 | 1.94 | 6.55 | 2360 | 8.15 |
| Cn1c2ccccc2c2cc(-c3ccccc3)c3c(c21)C(=O)C=CC3=O | – | > 100 | – | 40.2 | – | 64.9 | – | > 76 | – | 61.7 | – | 78.3 | – | > 88.9 | – | 58.3 | – | 24.7 | – | > 100 |
| O=C(CCCn1ccnc1[N+](=O)[O-])NCCn1cnc([N+](=O)[O-])c1 | – | > 100 | – | > 100 | – | > 100 | – | > 100 | – | > 100 | – | > 100 | – | > 100 | – | > 100 | – | > 100 | – | > 100 |
| COc1cc(/C=C/C(=O)c2c(C)n([O-])c3cc(C)c(C)cc3[n+]2=O)cc(OC)c1OC | 32.4 | 91.9 | 19600 | 41.1 | 12.8 | 29.4 | 20200 | 58.2 | 19.9 | 54.2 | 23.6 | 71.8 | 14.2 | 32.6 | 14.9 | 31.6 | 9.62 | 25.1 | 23000 | 56.6 |
